Data on 18 compounds can be found in patent US20210276967A1 (OSPEDALE SAN RAFFAELE S.R.L., priority 2018, published 2021).

Assay [1] deals with HBV. The assay can be described thus: HBV inhibition in HepAD38 cells, extracellular HBV DNA by direct qPCR. It is filed as cell-based, hepatitis B virus. The settings on record: Hepatitis B virus; for EC50: HepAD38, 8-point dose-response, read-out: HBV inh EC50. The source says: HepAD38 cell line (Ladner et al., Antimicrob Agents Chemother, 1997, 41, 1715-20) was used for HBV inhibition assays. HepAD38 is a subclone, derived from hepatoblastoma cell line HepG2 (ATCC® Number: HB-8065™), that expresses HBV genome under the transcriptional control of a tetracycline-responsive promoter in a TET-OFF system: addition of tetracycline (TET) or doxycycline suppresses HBV replication, while its removal switches on the process allowing HBV viral particles release in the cell supernatant. HepAD38 cell line is maintained in DMEM/F12, supplemented with 10% of fetal bovine serum, 1% of glutamine, 1% of penicillin/streptomycin, 0.4 mg/ml G418 and 0.3 ug/ml tetracycline. For the HBV inhibition assay, doxycycline-free medium is used in order to allow virion production.
HBV inhibition activity in vitro was performed in 96 multiwell plates. During the initial (primary) screening compounds were first tested in triplicates at concentrations of 0.1 μM, 0.5 μM and 1 μM. For selected compounds, an 8-point dose-response curve was obtained using 1:2 serial dilutions (starting from 2.5 μM, 1.25 μM or 0.4 μM, depending on the degree of inhibition observed during the primary screening). From the dose-response curves, half maximal effective concentration (EC50) could be calculated (see also below).
In more detail, compounds—typically dissolved in DMSO stock solutions—were diluted to 2× the final desired concentration in 100 μl of the above medium (without doxycycline) and plated in three replicates in the 96-well plates.
Simultaneously, HepAD38 cells—extensively pre-washed in tetracycline-free medium in order to induce HBV production—were suspended at 2*10^4 cells in 100 μl of tetracycline-free medium and added to each well of the plate, to yield a final assay volume of 200 μl.
DMSO, used for stock solutions and compounds dilutions, is always present in the assays at a final concentration of 0.5%.
Plates were then incubated 96 hours at 37° C. and then subjected to cell viability assays and extracellular HBV quantification, in order to evaluate both the cytotoxic potential and the anti-viral activity of compounds.
Cytotoxicity was assessed by a commercial fluorescence assay that measures the metabolic activity of cells, directly related to cell viability (Cell Titer Blue, Promega). For each compound, cytotoxicity was evaluated at the same concentration employed to evaluate its anti-HBV activity. Anti-HBV activity was evaluated by quantification of extracellular HBV DNA with direct qPCR. In particular, supernatant was collected and centrifuged for cell debris clarification, viral DNA was extracted from virions by addition of lysis buffer (1 mM 1,4-dithiothreitol, 0.2% sodium dodecyl sulphate) and incubated at 95° C. for 10 min. Samples were then diluted 1:40 and real time PCR amplification was performed with SYBR green assay (Power SYBR™ Green PCR Master Mix-Thermo Fisher Scientific) and specific HBV primer (HBV-DF:5′-[…]-3′ (SEQ ID No. 1), HBV-DR:5′-[…]-3′ (SEQ ID No. 2)).
All HBV inhibition or antiviral activity data are typically reported in percent (%) relative to a non-treated reference sample. Excel and Graphpad Prism programs are typically used for data elaboration and EC50 calculation.

The test system of assay [2] is HBV. The settings on record: Phase 1b clinical studies; cited from earlier work.
Setting [3] is: HepAD38, 96 hours, read-out: HBV inhibition % (conc μM).

What is called inhibition is the drop in the measured response relative to a control, in per cent. Take `CC(C)(C)OC(=O)N[C@H]1CCC[C@H]1NS(=O)(=O)c1cc(C(=O)Nc2cc(F)c(F)c(F)c2)ccc1N` [Example E52, tert-butyl ((1S,2R)-2-((2-amino-5-((3,4,5-trifluorophenyl)carbamoyl)phenyl)sulfonamido)cyclopentyl)carbamate]: the inhibition at 1 µM with HBV [1] (1 μM, HepAD38, 96 hours, read-out: HBV inhibition % (conc μM)) is > 50%.
As to `Nc1ccc(C(=O)Nc2cc(F)c(F)c(F)c2)cc1S(=O)(=O)N1CCC(O)C1` (stereo not shown) [Example E53, 4-amino-3-((3-hydroxypyrrolidin-1-yl)sulfonyl)-N-(3,4,5-trifluorophenyl)benzamide], the inhibition at 0.5 µM in the assay on HBV [1] (setting [3]) is > 50%.
On the same count and under the same terms, the result for `Nc1ccc(C(=O)Nc2ccc(F)c(Cl)c2)cc1S(=O)(=O)N1CCC(O)CC1` [Example E54, 4-amino-N-(3-chloro-4-fluorophenyl)-3-((4-hydroxypiperidin-1-yl)sulfonyl)benzamide] reads > 50%.
On the same count and under the same terms, the value for `Nc1ccc(C(=O)Nc2ccc(F)c(Cl)c2)cc1S(=O)(=O)N1CC(O)C1` [Example E55, 4-amino-N-(3-chloro-4-fluorophenyl)-3-((3-hydroxyazetidin-1-yl)sulfonyl)benzamide] was > 50%.
The same measure, in the same setting: the value for `Nc1ccc(C(=O)Nc2cc(F)c(F)c(F)c2)cc1S(=O)(=O)NCC(O)CO` (stereo not shown) [Example E56, 4-amino-3-(N-(2,3-dihydroxypropyl)sulfamoyl)-N-(3,4,5-trifluorophenyl)benzamide] was > 50%.
`Nc1ncc(C(=O)Nc2cc(F)c(F)c(F)c2)cc1S(=O)(=O)N[C@H]1CC[C@H](O)CC1` [Example E58, trans-6-amino-5-(N-(4-hydroxycyclohexyl)sulfamoyl)-N-(3,4,5-trifluorophenyl)nicotinamide]: the inhibition at 0.1 µM in the assay with HBV [1] (setting [3]) is < 50%.
For `Nc1ccc(S(N)(=O)=O)cc1C(=O)Nc1cc(F)c(F)c(F)c1` [Example E59, 2-amino-5-sulfamoyl-N-(3,4,5-trifluorophenyl)benzamide], the inhibition at 0.5 µM in the assay with HBV [1] (setting [3]) is < 50%.
One may read the EC50 as the concentration that produces a half-maximal response. Regarding `Cc1cc(N)c(S(N)(=O)=O)cc1C(=O)Nc1ccc(F)c(Cl)c1` [Example E60, 4-amino-N-(3-chloro-4-fluorophenyl)-2-methyl-5-sulfamoylbenzamide], the 50% effective concentration (EC50) with HBV [1] was < 1000 nM.
In the case of `Nc1ccc(S(=O)(=O)N[C@H]2CC[C@H](O)CC2)cc1C(=O)Nc1cc(F)c(F)c(F)c1` [Example E61, trans-2-amino-5-(N-(4-hydroxycyclohexyl)sulfamoyl)-N-(3,4,5-trifluorophenyl)benzamide], the EC50 in the assay with HBV [1] was < 1000 nM.
Same read-out and setting: the result for `Nc1ccc(S(=O)(=O)N2CCC(O)CC2)cc1C(=O)Nc1cc(F)c(F)c(F)c1` [Example E62, 2-amino-5-((4-hydroxypiperidin-1-yl)sulfonyl)-N-(3,4,5-trifluorophenyl)benzamide] reads < 1000 nM.
Turning to `Cc1cc(N)c(S(=O)(=O)N[C@H](C)C(F)(F)F)cc1C(=O)Nc1cc(F)c(F)c(F)c1` [Example E63, (R)-4-amino-2-methyl-N-(3,4,5-trifluorophenyl)-5-(N-(1,1,1-trifluoropropan-2-yl)sulfamoyl)benzamide], the inhibition at 0.1 µM in the assay on HBV [1] (setting [3]) is > 50%.
For the compound `Cc1cc(N)c(S(=O)(=O)N[C@@H](C)C(F)(F)F)cc1C(=O)Nc1cc(F)c(F)c(F)c1` [Example E64, (S)-4-amino-2-methyl-N-(3,4,5-trifluorophenyl)-5-(N-(1,1,1-trifluoropropan-2-yl)sulfamoyl)benzamide], in the assay on HBV [1] (setting [3]), the inhibition at 0.5 µM was > 50%.
For `Cc1cc(N)c(S(N)(=O)=O)cc1C(=O)Nc1cc(F)c(F)c(Cl)c1` [Example E65, 4-amino-N-(3-chloro-4,5-difluorophenyl)-2-methyl-5-sulfamoylbenzamide], in the assay on HBV [1] (setting [3]), the inhibition at 0.1 µM was > 50%.
For the compound `Cc1cc(N)c(S(N)(=O)=O)cc1C(=O)Nc1ccc(Cl)nc1` [Example E66, 4-amino-N-(6-chloropyridin-3-yl)-2-methyl-5-sulfamoylbenzamide], in the assay with HBV [1] (setting [3]), the inhibition at 0.5 µM was < 50%.
Still for that read-out and setting: the value for `Cc1cc(N)c(S(N)(=O)=O)cc1C(=O)Nc1ccc(F)c(C(F)(F)F)c1` [Example E67, 4-amino-N-(4-fluoro-3-(trifluoromethyl)phenyl)-2-methyl-5-sulfamoylbenzamide] was > 50%.
Consider `Cc1cc(N)c(S(N)(=O)=O)cc1C(=O)Nc1ccc(F)c(C(F)F)c1` [Example E68, 4-amino-N-(3-(difluoromethyl)-4-fluorophenyl)-2-methyl-5-sulfamoylbenzamide], for which the inhibition at 0.1 µM with HBV [1] (setting [3]) is > 50%.
For the compound `Cc1cc(N)c(S(N)(=O)=O)cc1C(=O)Nc1ccc(F)c(C#N)c1` [Example E69, 4-amino-N-(3-cyano-4-fluorophenyl)-2-methyl-5-sulfamoylbenzamide], the inhibition at 0.5 µM with HBV [1] (setting [3]) was > 50%.
`O=C(Nc1cc(F)c(F)c(F)c1)c1ccc(F)c(S(=O)(=O)N2CCC(O)CC2)c1` [NVR3-778]: in the assay on HBV [2], the “reduction in HBV DNA” value is on record as “significant reduction” and the “reduction in serum HBV RNA” value is recorded as “significant reduction”.
